# Test results taken from patent publication US9115083B2 (Simpson Biotech Co., Ltd, priority 2011, dated 2015).
# Where “and” joins values, the source holds several entries; their conditions need not be identical. Equal entries are not always repeated.
# Molecular target: HCV NS3/4A protease (Hepatitis C virus genotype 1a (isolate H77) (HCV), UniProt P27958)
# Assay: HCV protease assay (fluorimetric, FRET substrate)
# Assay type: biochemical
# Conditions: not given
# Excerpt: The HCV protease assay herein was applied to investigate the HCV-protease inhibitory activity of the prepared compounds as described above. The method of the HCV protease assay was described in D. T. Phuong, C. M. Ma, M. Hattori and J. S. Jin: Inhibitory Effects of Antrodins A-E from Antrodia cinnamomea and Their Metabolites on Hepatitis C Virus Protease. Phytotherapy Research, 23, 582-584, 2009. Two micro liters of a compound solution (using DMSO as solvent) was placed in 384 well micro plate, then 8 μl of HCV NS3/4A protease ([…]) was added to the well containing a sample and the plate was agitated. Finally, 10 μL of freshly prepared substrate (Ac-Asp-Glu-Dap(QXL™520)-Glu-Glu-Abu-COO-Ala-Ser-Cys(5-FAMsp)-NH2) (100× dilution of a DMSO stock solution) was added with sequential rotational shaking. The reaction mixture was incubated for 30 min at 37° C. The fluorimetric analyses were performed on an automated TECAN GENios plate reader with excitation wavelength at 485 nm and emission 530 nm. Each test compound was carried out in triplicate. The HCV—PR inhibition (%) was calculated by using the following equation: % inhibition=(Fvehicle control−[…])×100/Fvehicle control (Where F is the fluorescence value of vehicle control or of sample minus the fluorescence of the substrate control).
# Chain of HCV NS3/4A protease (P27958 1027-1657): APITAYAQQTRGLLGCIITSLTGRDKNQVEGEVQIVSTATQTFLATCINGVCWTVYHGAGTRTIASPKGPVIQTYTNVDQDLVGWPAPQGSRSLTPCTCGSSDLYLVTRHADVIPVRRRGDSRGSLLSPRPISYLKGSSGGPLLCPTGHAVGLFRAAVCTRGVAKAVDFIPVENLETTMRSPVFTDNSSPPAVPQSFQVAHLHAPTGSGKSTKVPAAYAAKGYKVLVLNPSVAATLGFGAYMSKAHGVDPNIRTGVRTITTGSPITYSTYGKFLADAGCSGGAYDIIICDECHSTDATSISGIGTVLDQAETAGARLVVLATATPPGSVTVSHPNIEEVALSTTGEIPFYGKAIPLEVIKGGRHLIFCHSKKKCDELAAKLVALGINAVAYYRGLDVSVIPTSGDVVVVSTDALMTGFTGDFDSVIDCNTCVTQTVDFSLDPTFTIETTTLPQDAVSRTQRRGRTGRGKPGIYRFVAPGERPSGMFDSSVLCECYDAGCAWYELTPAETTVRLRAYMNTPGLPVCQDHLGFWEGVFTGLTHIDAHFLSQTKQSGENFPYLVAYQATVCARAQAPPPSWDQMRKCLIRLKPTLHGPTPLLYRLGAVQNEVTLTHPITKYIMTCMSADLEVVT
# Chain of HCV NS3/4A protease (P27958 1658-1711 partner): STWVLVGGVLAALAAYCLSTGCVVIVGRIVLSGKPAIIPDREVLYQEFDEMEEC
row,Structure (SMILES),IC50
1,"CC(C)=CCOc1ccc(C2=C(CC(C)C)C(=O)N(C(CO)C(=O)O)C2=O)cc1 (stereo not drawn) [Compound A3, 3-Hydroxy-2-(3-isobutyl-4-(4-(3-methylbut-2-enyloxy)phenyl)-2,5-dioxo-2,5-dihydro-1H-pyrrol-1-yl)propanoic acid]",27 µM
2,"CC(C)=CCOc1ccc(C2=C(CC(C)C)C(=O)N(C(CC(C)C)C(=O)O)C2=O)cc1 (stereo not drawn) [Compound A1, 2-(3-Isobutyl-4-(4-(3-methylbut-2-enyloxy)phenyl)-2,5-dioxo-2,5-dihydro-1H-pyrrol-1-yl)-4-methylpentanoic acid]",8.6 µM
3,"CC(C)=CCOc1ccc(C2=C(CC(C)C)C(=O)N(C(Cc3ccccc3)C(=O)O)C2=O)cc1 (stereo not drawn) [Compound A2, 2-(3-Isobutyl-4-(4-(3-methylbut-2-enyloxy)phenyl)-2,5-dioxo-2,5-dihydro-1H-pyrrol-1-yl)-3-phenylpropanoic acid]",14 µM

# Same assay, conditions: HCV NS3/4A protease, 30 min at 37° C., triplicate; read-out: IC50 against HCV protease
row,Structure (SMILES),IC50
1,"CC(C)=CCOc1ccc(C2=C(CC(C)C)C(=O)N(C(CC(C)C)C(=O)NC3CC3)C2=O)cc1 (stereo not drawn) [Compound A1-6, N-Cyclopropyl-2-(3-isobutyl-4-(4-(3-methylbut-2-enyloxy)phenyl)-2,5-dioxo-2,5-dihydro-1H-pyrrol-1-yl)-4-methylpentanamide]",> 200 µM
2,CC(C)=CCOc1ccc(C2=C(CC(C)C)C(=O)N(CCC(=O)C(N)=O)C2=O)cc1 [KBnh-1],12.1 µM
3,CC(C)CC1C(=O)N(CC(O)C(=O)O)C(=O)C1c1ccc(O)cc1 (stereo not drawn) [KA-t],185 µM
4,CC(C)CC1C(=O)N(C(C(=O)O)C(C)C)C(=O)C1c1ccc(O)cc1 (stereo not drawn) [Compound A15],85 µM
5,"CCOC(=O)[C@H](Cc1ccccc1)NC(=O)C(=O)C(c1ccccc1)N1C(=O)C(CC(C)C)=C(c2ccc(OCC=C(C)C)cc2)C1=O (stereo partly drawn) [KC-1, Ethyl 2-(3-(3-isobutyl-4-(4-(3-methylbut-2-enyloxy)phenyl)-2,5-dioxo-2,5-dihydro-1H-pyrrol-1-yl)-2-oxo-3-phenylpropanamido)-3-phenylpropanoate]",> 100 µM

# Molecular target: dipeptidyl peptidase-IV (DPPIV) (Homo sapiens (Human), UniProt P27487)
# Assay: dipeptidyl peptidase-IV (DPPIV) assay
# Assay type: biochemical
# Conditions: IC50 against DPPIV, Table 10, first scaffold
# Excerpt: In addition, the dipeptidyl peptidase-IV (DPPIV) assay herein was applied to investigate the DPPIV inhibitory activity of the prepared compounds as described above. The method of the DPPIV assay was described in Lin et al., 1998. Inhibition of dipeptidyl peptidase IV by fluoroolefin-containing N-peptidyl-O-hydroxylamine peptidomimetics. Proc. Natl. Acad. Sci. USA Vol. 95, pp. 14020-14024.
# Chain of dipeptidyl peptidase-IV (DPPIV) (P27487 whole entry, species assumed): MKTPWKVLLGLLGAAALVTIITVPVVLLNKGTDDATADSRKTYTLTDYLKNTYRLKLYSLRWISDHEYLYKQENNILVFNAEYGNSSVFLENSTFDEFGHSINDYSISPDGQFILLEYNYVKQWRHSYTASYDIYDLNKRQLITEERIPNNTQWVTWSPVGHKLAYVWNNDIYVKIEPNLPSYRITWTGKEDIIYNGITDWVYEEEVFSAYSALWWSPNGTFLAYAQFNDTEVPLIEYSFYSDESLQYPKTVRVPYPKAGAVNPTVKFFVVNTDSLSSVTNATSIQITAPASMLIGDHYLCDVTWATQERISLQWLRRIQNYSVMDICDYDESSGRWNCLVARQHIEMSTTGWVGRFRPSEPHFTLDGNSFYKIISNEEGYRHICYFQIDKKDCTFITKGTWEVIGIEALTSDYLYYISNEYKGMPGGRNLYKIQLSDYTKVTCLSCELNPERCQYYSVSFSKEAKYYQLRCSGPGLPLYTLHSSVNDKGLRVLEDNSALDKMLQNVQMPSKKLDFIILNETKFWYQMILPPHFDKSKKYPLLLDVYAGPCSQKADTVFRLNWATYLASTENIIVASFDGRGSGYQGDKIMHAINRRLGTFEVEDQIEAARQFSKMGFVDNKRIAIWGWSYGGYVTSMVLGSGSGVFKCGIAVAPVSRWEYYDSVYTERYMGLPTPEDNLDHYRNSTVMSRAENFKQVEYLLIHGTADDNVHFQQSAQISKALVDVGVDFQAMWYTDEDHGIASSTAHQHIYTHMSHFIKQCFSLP
row,Structure (SMILES),IC50
1,COC(=O)[C@@H]1CCCN1C(=O)C(CC(C)C)N1C(=O)C(CC(C)C)=C(c2ccc(OCC=C(C)C)cc2)C1=O (stereo partly drawn) [Compound A1-5],> 186 µM and 65 µM

# Same assay, conditions: Table 10, first scaffold; read-out: IC50 against DPPIV (converted)
row,Structure (SMILES),IC50
1,"CC(C)=CCOc1ccc(C2=C(CC(C)C)C(=O)N(C(CO)C(=O)O)C2=O)cc1 (stereo not drawn) [Compound A3, 3-Hydroxy-2-(3-isobutyl-4-(4-(3-methylbut-2-enyloxy)phenyl)-2,5-dioxo-2,5-dihydro-1H-pyrrol-1-yl)propanoic acid]",99.6 µM
2,"CC(C)=CCOc1ccc(C2=C(CC(C)C)C(=O)N(C(CC(C)C)C(=O)O)C2=O)cc1 (stereo not drawn) [Compound A1, 2-(3-Isobutyl-4-(4-(3-methylbut-2-enyloxy)phenyl)-2,5-dioxo-2,5-dihydro-1H-pyrrol-1-yl)-4-methylpentanoic acid]",105 µM
3,"CC(C)=CCOc1ccc(C2=C(CC(C)C)C(=O)N(C(Cc3ccccc3)C(=O)O)C2=O)cc1 (stereo not drawn) [Compound A2, 2-(3-Isobutyl-4-(4-(3-methylbut-2-enyloxy)phenyl)-2,5-dioxo-2,5-dihydro-1H-pyrrol-1-yl)-3-phenylpropanoic acid]",75.8 µM

# Same assay, conditions: Table 10, second scaffold; read-out: IC50 against DPPIV (converted)
row,IC50,Structure (SMILES)
1,85 µM,CC(C)CC1C(=O)N(C(CO)C(=O)N2CCC[C@H]2C(=O)O)C(=O)C1c1ccc(O)cc1 (stereo partly drawn) [Compound A3-15]
2,29 µM,CC(C)CC1C(=O)N(C(CC(C)C)C(=O)N2CCC[C@H]2C(=O)O)C(=O)C1c1ccc(O)cc1 (stereo partly drawn) [Compound A1-9]
3,75 µM,CC(C)CC1C(=O)N(C(CC(C)C)C(=O)O)C(=O)C1c1ccc(O)cc1 (stereo not drawn) [Compound A1-t]
4,60 µM,CC(C)CC1C(=O)N(C(Cc2ccccc2)C(=O)N2CCC[C@H]2C(=O)O)C(=O)C1c1ccc(O)cc1 (stereo partly drawn) [Compound A2-14]

row,Structure (SMILES),IC50
1,CC(C)CC1C(=O)N(C(Cc2ccccc2)C(=O)O)C(=O)C1c1ccc(O)cc1 (stereo not drawn) [Compound A2-t],90 µM
2,CC(C)CC1C(=O)N(C(CO)C(=O)O)C(=O)C1c1ccc(O)cc1 (stereo not drawn) [Compound A3-t],70 µM
